Assay results: US11819514B2, “Use of oligosaccharide riclinoctaose in preparation of drug for treating and/or preventing ischemia-reperfusion injury (IRI)” (Nanjing Southern Element Biotechnology Co., Ltd., priority 2021, dated 2023)
Entries after “also recorded” stand apart in the source; their conditions may differ.

Experiments:
male C57/BL6J mice [1] = assay: HIRI mouse model: serum enzyme activity assay (ALT, AST, LDH); assay type: in vivo; conditions: i.p. 20 mg/mL (LRO) and 40 mg/mL (HRO) 4 h to 6 h before surgery, 30 min ischemia, 6 h reperfusion, vs model group
Description: (§1) The experimental animals were male C57/BL6J mice aged 6 to 8 weeks and weighed 22 g to 26 g. The mice were housed under standard experimental conditions with a 12-hour light-12-hour dark cycle with free access to water and food. The mice were anesthetized with isoflurane, the abdomen was operated on, and the blood supply to middle and left lobes of the liver was blocked with non-invasive hemostatic clips, resulting in 70% hepatic ischemia; after 30 min of ischemia, the clips were removed, and samples were collected to measure biochemical parameters after reperfusion for 6 h.
(§2) The mice were administered by intraperitoneal injection and randomly divided into four groups; a first group was a sham-operation group (sham), the animals in the sham-operation group received the same laparotomy without vascular clip occlusion; a second group was a model group (IR); a third group was a low-dosage group (LRO), with 20 mg/mL of the oligosaccharide riclinoctaose injected intraperitoneally about 4 h to 6 h before surgery; and a fourth group was a high-dosage group (HRO), with 40 mg/mL of the oligosaccharide riclinoctaose injected intraperitoneally about 4 h to 6 h before surgery. The oligosaccharide riclinoctaose drug was dissolved in a 0.9% normal saline.
Whole blood was collected, allowed to coagulate naturally at a room temperature, centrifuged at 2,000 r/min for 10 min, and a supernatant was collected for the determination of ALT, AST and LDH enzyme activities. The activities of AST, ALT and LDH were determined by an enzyme colorimetric quantitative analysis method, according to operation steps in kit instructions, and finally concentrations were determined by colorimetry at a wavelength of 505 nm or 440 nm.
(§3) Comparisons between multiple groups were statistically analyzed using a One-way ANOVA statistical method. P<0.05 was considered to have a significant effect.

male C57/BL6J mice [2] = assay: HIRI mouse model: histological analysis of liver (H&E); assay type: in vivo
Description: as §1
as §2, with “saline. […]” for “saline.”

male C57/BL6J mice [3] = assay: RIRI mouse model: plasma biochemical indicators (BUN, Creatinine, LDH); assay type: in vivo; conditions: i.p. 20 or 40 mg/mL 4 h to 6 h before surgery, 30 min ischemia, 24 h reperfusion
From the text: The experimental animals were male C57/BL6J mice aged 6 to 8 weeks and weighed 22 g to 26 g; the mice were anesthetized with isoflurane, and the abdomen was operated on, and after the righting reflex disappeared, the mice were placed in a prone position on a mouse dissection table and fixed; under sterile conditions, the abdominal cavity was opened along a 1.5 cm longitudinal incision on both dorsal sides, the muscles were bluntly separated, and the renal pedicles on both sides were exposed; the blood flow was blocked with a non-invasive vascular clip, and the kidneys turned from red to dark purple, indicating successful ischemia. After 30 min of ischemia, the arterial clips were released, and the abdominal cavity was closed after the kidneys were restored to perfusion; after 24 h, samples were collected to measure biochemical indicators, and an RIRI model was established. […]
Whole blood was collected, allowed to coagulate naturally at a room temperature, centrifuged at 2,000 r/min for 10 min, and a supernatant was collected for the determination of BUN, Creatinine, and LDH. The plasma BUN, Creatinine and LDH concentrations of mice in each group were analyzed according to instructions of the plasma BUN, Creatinine, and LDH detection kits, followed by operation steps in kit instructions, and finally concentrations were determined by colorimetry at a wavelength of 510 nm or 440 nm.
Comparisons between multiple groups were statistically analyzed using a One-way ANOVA statistical method. […]

male C57/BL6J mice [4] = assay: RIRI mouse model: histological analysis of kidney (H&E, PAS); assay type: in vivo; conditions: vs model group
From the text: The experimental animals were male C57/BL6J mice aged 6 to 8 weeks and weighed 22 g to 26 g; the mice were anesthetized with isoflurane, and the abdomen was operated on, and after the righting reflex disappeared, the mice were placed in a prone position on a mouse dissection table and fixed; under sterile conditions, the abdominal cavity was opened along a 1.5 cm longitudinal incision on both dorsal sides, the muscles were bluntly separated, and the renal pedicles on both sides were exposed; the blood flow was blocked with a non-invasive vascular clip, and the kidneys turned from red to dark purple, indicating successful ischemia. After 30 min of ischemia, the arterial clips were released, and the abdominal cavity was closed after the kidneys were restored to perfusion; after 24 h, samples were collected to measure biochemical indicators, and an RIRI model was established.
as §2
Histomorphological changes in mouse kidneys were analyzed by H&E staining and PAS staining. The resected kidney tissue was immediately fixated with buffered 4% paraformaldehyde (in a PBS buffer) for histological analysis, embedded in paraffin, and sections were stained with by H&E or PAS. The necrosis and structural damages of nephrocytes were observed by a microscope.

male C57/BL6J mice [5] = assay: CIRI (MCAO) mouse model: neurofunctional scoring (mNSS, Longa); assay type: in vivo
From the text: The experimental animals were male C57/BL6J mice aged 6 to 8 weeks and weighed 22 g to 26 g. Mice were anesthetized with isoflurane and placed on a supine heating pad. The skin was disinfected with iodine and 75% ethanol. A midline neck incision is made to expose the carotid artery […]. An external carotid artery (ECA) was isolated and occluded with two knots. An internal carotid artery (ICA) was isolated, and the MCA and ICA were clamped with microvascular clips. A small hole was cut in the ECA between the knot and a bifurcation point. A silicone rubber-coated, 30-mm-long, and 0.11-mm-diameter middle cerebral artery occlusion (MCAO) tether was introduced into the ICA. The artery was opened while sutures were inserted to block the blood vessel. A third knot on the ICA was closed and the suture was secured in a proper place. The mouse abdominal cavity was sutured, and the mice were placed in a heated cage for 30 min, and the wound was closed using small suture clips. The third knot was loosened, the filament was removed, and reperfusion was conducted for 24 h. The skin was closed and the mice were returned to individual cages.
as §2, with “neck incision” for “laparotomy”, “suture blockage;” for “clip occlusion;”
Neurofunctional scoring: the neurobehavioral functions were assessed using mNSS and Longa scores. The mNSS assessed neurological deficits through motor, reflex, sensory, and balance tests. Scores ranged from 0 (indicating no neurological deficit) to 18 (indicating the most severely-injured animal). The Longa score was determined as follows: 0 points, no neurological deficit; 1 point, the animals were unable to fully extend the contralateral forelimbs; 2 points, there was a tail scratching phenomenon when walking (circling to the opposite side); 3 points, a standing posture was unstable, falling to the opposite side; and 4 points, there was no spontaneous walking and loss of consciousness. A score of 0 to 2 was classified as mild nerve injury, while a score of 3 to 4 was classified as severe nerve injury.
as §3

[6] = cited from earlier work
intestinal microflora = conditions: cited from earlier work
[7] = i.p. injection before surgery, 30 min occlusion, 24 h reperfusion, vs model group

D-Glcp(4,6-pyr)-β-(1→3)-D-Glcp-β-(1→3)-D-Glcp-β-(1→6)-D-Glcp-β-(1→6)-D-Glcp-β-(1→4)-D-Glcp-β-(1→4)-D-Glcp-β-(1→3)-D-Galp [oligosaccharide riclinoctaose]
ALT activity in serum (male C57/BL6J mice [1]): decrease the AST, ALT and LDH values in a dosage-dependent manner; also recorded: significant reduction of ALT, AST, LDH activities in serum
AST activity in serum (male C57/BL6J mice [1]): decrease the AST, ALT and LDH values in a dosage-dependent manner; also recorded: significant reduction of ALT, AST, LDH activities in serum
LDH activity in serum (male C57/BL6J mice [1]): decrease the AST, ALT and LDH values in a dosage-dependent manner; also recorded: significant reduction of ALT, AST, LDH activities in serum
necrotic area of liver parenchyma cells (H&E staining) (male C57/BL6J mice [2]; i.p. 20 and 40 mg/mL before surgery, 6 h reperfusion): reduction of a necrotic area of liver parenchyma cells
liver tissue morphology / degree of damages (H&E staining) (male C57/BL6J mice [2]; treatment groups compared with sham-operation and model groups): the treatment groups and the sham-operation group have the closest tissue morphology, indicating a lesser degree of damages
plasma BUN (male C57/BL6J mice [3]): significantly decreased
plasma Creatinine (male C57/BL6J mice [3]): significantly decreased
plasma LDH (male C57/BL6J mice [3]): significantly decreased
area of cell necrosis in kidney (H&E staining) (male C57/BL6J mice [4]): the area of cell necrosis is reduced
brush border shedding of renal tubule cells and degree of cell necrosis (PAS staining) (male C57/BL6J mice [4]): significantly reduced
infiltration of inflammatory factors in kidney (H&E staining) (male C57/BL6J mice [4]): the infiltration of inflammatory factors is also reduced
neurobehaviour, low-dosage group (LRO) (male C57/BL6J mice [5]; 20 mg/mL i.p. 4 h to 6 h before surgery): cannot fully extend the contralateral forelimbs, the mice are not as severe as those in the model group
neurobehaviour, high-dosage group (HRO) (male C57/BL6J mice [5]; 40 mg/mL i.p. 4 h to 6 h before surgery): behave similarly to those in the sham-operation group (sham) without neurological deficits
neurological deficit by Longa score (male C57/BL6J mice [5]; [7]): the neurological deficit of mice can be significantly reduced
neurological deficit by mNSS (male C57/BL6J mice [5]; [7]): the neurological deficit of mice can be significantly reduced
water solubility [6]: desirable water solubility
effect on intestinal microflora as a prebiotic (intestinal microflora): significantly improve the intestinal microflora
